The source of these data is patent US9770349B2, “Nanoporous stents with enhanced cellular adhesion and reduced neointimal formation” (University of Virginia Patent Foundation, priority 2002, dated 2017).

A word on the solubility: it is how much of the substance goes into solution per volume.

A short description of the data set: Rapamycin solubility in solvent. It is filed as physicochemical. The following applies: 100% ethanol, organic solvent or mixture, in ethanol (100% ethanol).

Each structure is given as a SMILES string. In brackets after ≈: the same amount, converted by molar mass.

In the case of `CO[C@H]1C[C@@H]2CC[C@@H](C)[C@@](O)(O2)C(=O)C(=O)N2CCCC[C@H]2C(=O)O[C@H]([C@H](C)C[C@@H]2CC[C@@H](O)[C@H](OC)C2)CC(=O)[C@H](C)/C=C(\C)[C@@H](O)[C@@H](OC)C(=O)[C@H](C)C[C@H](C)/C=C/C=C/C=C/1C` [rapamycin], the solubility is around 90 mg/mL (≈ 98.4 mM).
